The values that follow are results of earlier work, collected in patent publication US6903136B2, “Food supplements containing 4-hydroxyisoleucine and creatine” (Experimental and Applied Sciences, Inc., priority 2002, dated 2005).

The test system of one data set is secretion of insulin. To be noted: in vitro.
Data set [1] deals with insulinotropic activity. To be noted: normal and diabetic rats; intravenous and oral delivery.
For data set [2], the system named is insulinotropic activity.

Take `CC(O)[C@H](C)[C@H](N)C(=O)O` (stereo partly shown) [Example 4OH-Ile, 4-Hydroxyisoleucine]: the “effect on secretion of insulin” value in the data set with secretion of insulin (normal blood glucose levels) is listed as “does not affect the secretion of insulin”. In addition, in the data set on secretion of insulin (supranormal glucose levels), the insulinotropic activity result was “strong insulinotropic activity”. In addition, the “insulinotropic activity in vivo” value in the data set on insulinotropic activity [1] is listed as “verified the insulinotropic activity in vivo”.
For `CC(O)C(C)C(N)C(=O)O` (single isomer, unassigned) [(2R, 3R, 4S) isomer], in the data set on insulinotropic activity [2], the “activity as an insulinotropic agent” value was “inactive”.
On to `C[C@@H]([C@H](C)O)[C@H](N)C(=O)O` (single isomer, unassigned) [(2S, 3R, 4S) stereoisomer of 4OH-Ile], for which, in the data set with insulinotropic activity [2], the “activity as an insulinotropic agent” value was “active”. Moreover, in the data set on insulinotropic activity [2] (fold more active than leucine, isoleucine, or homoserine), the “activity as an insulinotropic agent relative to leucine, isoleucine, or homoserine” value is “at least 15 ×”.
Take `CC1OC(=O)C(N)C1C` (stereo not shown) [lactone form of 4OH-Ile]: the “activity as an insulinotropic agent” value in the data set with insulinotropic activity [2] is “not active”.
